From article PMC6199309, “A therapeutic approach to pantothenate kinase associated neurodegeneration” (Nature Communications, 2018)

Legend:
Assay in all cases: KINOMEscan
Format in all cases: binding
Details in all cases: read-out: %Ctrl @ 10000nM
ERK1 = target: T1, ERK1 (Homo sapiens, UniProt P27361)
T1 construct: purchased DiscoverX KINOMEscan

NEK1 = target: T2, NEK1 (Homo sapiens, UniProt Q96PY6)
T2 construct: purchased DiscoverX KINOMEscan

MUSK = target: T3, MUSK (Homo sapiens, UniProt O15146)
T3 construct: purchased DiscoverX KINOMEscan

HCK = target: T4, HCK (Homo sapiens, UniProt P08631)
T4 construct: purchased DiscoverX KINOMEscan

GCN2(Kin.Dom.2,S808G) = target: T5, GCN2(Kin.Dom.2,S808G) (Homo sapiens, UniProt Q9P2K8, S808G)
T5 construct: GCN2(Kin.Dom.2,S808G); purchased DiscoverX KINOMEscan

JNK2 = target: T6, JNK2 (Homo sapiens, UniProt P45984)
T6 construct: purchased DiscoverX KINOMEscan

AURKB = target: T7, AURKB (Homo sapiens, UniProt Q96GD4)
T7 construct: purchased DiscoverX KINOMEscan

NEK7 = target: T8, NEK7 (Homo sapiens, UniProt Q8TDX7)
T8 construct: purchased DiscoverX KINOMEscan

[1] = target: T9, ABL1(Q252H)-nonphosphorylated (Homo sapiens, UniProt P00519, Q252H)
T9 construct: purchased DiscoverX KINOMEscan

PAK2 = target: T10, PAK2 (Homo sapiens, UniProt Q13177)
T10 construct: purchased DiscoverX KINOMEscan

MEK5 = target: T11, MEK5 (Homo sapiens, UniProt Q13163)
T11 construct: purchased DiscoverX KINOMEscan

MYO3B = target: T12, MYO3B (Homo sapiens, UniProt Q8WXR4)
T12 construct: purchased DiscoverX KINOMEscan

KIT(D816V) = target: T13, KIT(D816V) (Homo sapiens, UniProt P10721, D816V)
T13 construct: purchased DiscoverX KINOMEscan

CAMK1G = target: T14, CAMK1G (Homo sapiens, UniProt Q96NX5)
T14 construct: purchased DiscoverX KINOMEscan

FGFR4 = target: T15, FGFR4 (Homo sapiens, UniProt P22455)
T15 construct: purchased DiscoverX KINOMEscan

FLT4 = target: T16, FLT4 (Homo sapiens, UniProt P35916)
T16 construct: purchased DiscoverX KINOMEscan

KIT(D816H) = target: T17, KIT(D816H) (Homo sapiens, UniProt P10721, D816H)
T17 construct: purchased DiscoverX KINOMEscan

PKNB(M.tuberculosis) = target: T18, PKNB(M.tuberculosis) (Mycobacterium tuberculosis, UniProt P9WI81)
T18 construct: purchased DiscoverX KINOMEscan

EGFR = target: T19, EGFR (Homo sapiens, UniProt P00533)
T19 construct: purchased DiscoverX KINOMEscan

ERBB3 = target: T20, ERBB3 (Homo sapiens, UniProt P21860)
T20 construct: purchased DiscoverX KINOMEscan

CAMK2G = target: T21, CAMK2G (Homo sapiens, UniProt Q13555)
T21 construct: purchased DiscoverX KINOMEscan

AAK1 = target: T22, AAK1 (Homo sapiens, UniProt Q2M2I8)
T22 construct: purchased DiscoverX KINOMEscan

MAP3K15 = target: T23, MAP3K15 (Homo sapiens, UniProt Q6ZN16)
T23 construct: purchased DiscoverX KINOMEscan

DMPK = target: T24, DMPK (Homo sapiens, UniProt Q09013)
T24 construct: purchased DiscoverX KINOMEscan

PRKD1 = target: T25, PRKD1 (Homo sapiens, UniProt Q15139)
T25 construct: purchased DiscoverX KINOMEscan

PFTAIRE2 = target: T26, PFTAIRE2 (Homo sapiens, UniProt Q96Q40)
T26 construct: purchased DiscoverX KINOMEscan

PKN2 = target: T27, PKN2 (Homo sapiens, UniProt Q16513)
T27 construct: purchased DiscoverX KINOMEscan

MET = target: T28, MET (Homo sapiens, UniProt P08581)
T28 construct: purchased DiscoverX KINOMEscan

HIPK3 = target: T29, HIPK3 (Homo sapiens, UniProt Q9H422)
T29 construct: purchased DiscoverX KINOMEscan

DYRK1A = target: T30, DYRK1A (Homo sapiens, UniProt Q13627)
T30 construct: purchased DiscoverX KINOMEscan

DRAK2 = target: T31, DRAK2 (Homo sapiens, UniProt O94768)
T31 construct: purchased DiscoverX KINOMEscan

BIKE = target: T32, BIKE (Homo sapiens, UniProt Q9NSY1)
T32 construct: purchased DiscoverX KINOMEscan

MST2 = target: T33, MST2 (Homo sapiens, UniProt Q13188)
T33 construct: purchased DiscoverX KINOMEscan

FYN = target: T34, FYN (Homo sapiens, UniProt P06241)
T34 construct: purchased DiscoverX KINOMEscan

CSF1R-autoinhibited = target: T35, CSF1R-autoinhibited (Homo sapiens, UniProt P07333)
T35 construct: purchased DiscoverX KINOMEscan

PRKCQ = target: T36, PRKCQ (Homo sapiens, UniProt Q04759)
T36 construct: purchased DiscoverX KINOMEscan

MET(M1250T) = target: T37, MET(M1250T) (Homo sapiens, UniProt P08581, M1250T)
T37 construct: purchased DiscoverX KINOMEscan

PIK3CA(E545A) = target: T38, PIK3CA(E545A) (Homo sapiens, UniProt P42336, E545A)
T38 construct: purchased DiscoverX KINOMEscan

CSNK1A1 = target: T39, CSNK1A1 (Homo sapiens, UniProt P48729)
T39 construct: purchased DiscoverX KINOMEscan

MEK1 = target: T40, MEK1 (Homo sapiens, UniProt Q02750)
T40 construct: purchased DiscoverX KINOMEscan

PDGFRB = target: T41, PDGFRB (Homo sapiens, UniProt P09619)
T41 construct: purchased DiscoverX KINOMEscan

[2] = target: T42, ABL1(F317I)-phosphorylated (Homo sapiens, UniProt P00519, F317I)
T42 construct: purchased DiscoverX KINOMEscan

ACVR2B = target: T43, ACVR2B (Homo sapiens, UniProt Q13705)
T43 construct: purchased DiscoverX KINOMEscan

T15 sequence (P22455 22-802): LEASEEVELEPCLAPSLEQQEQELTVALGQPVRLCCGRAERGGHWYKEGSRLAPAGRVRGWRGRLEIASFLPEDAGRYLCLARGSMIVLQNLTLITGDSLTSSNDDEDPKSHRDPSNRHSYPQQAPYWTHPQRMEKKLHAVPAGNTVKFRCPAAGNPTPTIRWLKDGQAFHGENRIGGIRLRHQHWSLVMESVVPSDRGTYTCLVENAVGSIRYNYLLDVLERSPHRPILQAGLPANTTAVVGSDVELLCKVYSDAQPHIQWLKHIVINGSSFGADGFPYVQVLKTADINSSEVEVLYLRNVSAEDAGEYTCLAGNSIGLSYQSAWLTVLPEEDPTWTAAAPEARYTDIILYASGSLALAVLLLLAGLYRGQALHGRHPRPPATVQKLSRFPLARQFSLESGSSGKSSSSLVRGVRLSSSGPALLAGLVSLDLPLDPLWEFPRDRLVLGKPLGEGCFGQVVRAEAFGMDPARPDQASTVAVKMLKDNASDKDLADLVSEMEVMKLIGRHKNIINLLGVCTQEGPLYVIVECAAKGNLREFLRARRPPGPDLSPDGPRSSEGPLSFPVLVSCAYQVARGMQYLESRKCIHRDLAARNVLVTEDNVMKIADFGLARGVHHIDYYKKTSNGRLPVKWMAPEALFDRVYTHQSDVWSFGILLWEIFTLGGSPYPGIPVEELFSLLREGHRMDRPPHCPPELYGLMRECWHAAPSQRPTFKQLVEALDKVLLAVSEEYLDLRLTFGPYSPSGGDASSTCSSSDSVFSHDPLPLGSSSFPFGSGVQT
T4 sequence (P08631 whole entry): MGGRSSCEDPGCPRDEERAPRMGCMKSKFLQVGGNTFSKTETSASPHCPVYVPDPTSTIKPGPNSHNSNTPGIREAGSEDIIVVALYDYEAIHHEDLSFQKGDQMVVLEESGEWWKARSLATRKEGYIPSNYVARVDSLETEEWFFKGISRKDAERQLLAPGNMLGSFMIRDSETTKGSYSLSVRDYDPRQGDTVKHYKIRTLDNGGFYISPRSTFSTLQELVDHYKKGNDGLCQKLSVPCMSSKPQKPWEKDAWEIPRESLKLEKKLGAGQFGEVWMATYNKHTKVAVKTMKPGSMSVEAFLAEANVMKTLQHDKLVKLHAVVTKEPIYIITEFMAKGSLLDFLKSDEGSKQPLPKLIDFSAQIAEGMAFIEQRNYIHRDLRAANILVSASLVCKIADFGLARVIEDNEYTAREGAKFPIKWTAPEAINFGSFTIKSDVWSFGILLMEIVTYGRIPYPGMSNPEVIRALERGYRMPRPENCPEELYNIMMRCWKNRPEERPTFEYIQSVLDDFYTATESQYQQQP
T21 sequence (Q13555 whole entry): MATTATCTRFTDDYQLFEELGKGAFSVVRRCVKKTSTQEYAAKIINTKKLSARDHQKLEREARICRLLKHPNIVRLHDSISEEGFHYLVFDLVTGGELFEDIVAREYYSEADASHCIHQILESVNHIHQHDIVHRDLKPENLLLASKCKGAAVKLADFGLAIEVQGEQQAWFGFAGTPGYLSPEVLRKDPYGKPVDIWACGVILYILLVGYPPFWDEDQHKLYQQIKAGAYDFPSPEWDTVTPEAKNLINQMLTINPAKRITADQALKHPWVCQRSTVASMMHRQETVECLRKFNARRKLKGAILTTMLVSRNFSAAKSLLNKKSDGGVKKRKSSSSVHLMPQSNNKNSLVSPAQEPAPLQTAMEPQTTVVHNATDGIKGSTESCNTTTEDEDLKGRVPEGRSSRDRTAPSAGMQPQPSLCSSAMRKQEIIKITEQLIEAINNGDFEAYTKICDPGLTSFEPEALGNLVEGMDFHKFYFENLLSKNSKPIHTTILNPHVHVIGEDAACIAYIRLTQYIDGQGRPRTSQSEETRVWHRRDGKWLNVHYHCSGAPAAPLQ
T3 sequence (O15146 24-869): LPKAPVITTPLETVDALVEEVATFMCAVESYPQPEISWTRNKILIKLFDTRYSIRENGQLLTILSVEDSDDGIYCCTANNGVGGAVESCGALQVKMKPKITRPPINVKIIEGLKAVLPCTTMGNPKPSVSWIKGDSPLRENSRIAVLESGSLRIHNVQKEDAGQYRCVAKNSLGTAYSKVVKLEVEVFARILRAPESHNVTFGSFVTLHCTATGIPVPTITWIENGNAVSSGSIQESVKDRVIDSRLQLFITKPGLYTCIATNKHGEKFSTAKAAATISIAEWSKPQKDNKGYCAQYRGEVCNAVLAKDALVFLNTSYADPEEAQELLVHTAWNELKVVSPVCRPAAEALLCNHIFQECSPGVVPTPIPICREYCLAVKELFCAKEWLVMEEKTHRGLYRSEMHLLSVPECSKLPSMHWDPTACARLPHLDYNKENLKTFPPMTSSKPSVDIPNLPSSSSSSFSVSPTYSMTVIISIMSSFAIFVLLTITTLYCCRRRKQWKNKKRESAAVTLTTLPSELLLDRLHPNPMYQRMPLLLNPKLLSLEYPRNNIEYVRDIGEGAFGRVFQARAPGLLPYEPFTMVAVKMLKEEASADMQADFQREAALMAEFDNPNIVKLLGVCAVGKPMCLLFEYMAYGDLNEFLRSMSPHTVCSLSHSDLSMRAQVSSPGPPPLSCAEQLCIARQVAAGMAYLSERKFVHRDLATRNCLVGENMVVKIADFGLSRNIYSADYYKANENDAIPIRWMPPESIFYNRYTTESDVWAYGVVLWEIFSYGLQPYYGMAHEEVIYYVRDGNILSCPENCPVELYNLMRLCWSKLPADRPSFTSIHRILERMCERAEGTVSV
T10 sequence (Q13177 whole entry): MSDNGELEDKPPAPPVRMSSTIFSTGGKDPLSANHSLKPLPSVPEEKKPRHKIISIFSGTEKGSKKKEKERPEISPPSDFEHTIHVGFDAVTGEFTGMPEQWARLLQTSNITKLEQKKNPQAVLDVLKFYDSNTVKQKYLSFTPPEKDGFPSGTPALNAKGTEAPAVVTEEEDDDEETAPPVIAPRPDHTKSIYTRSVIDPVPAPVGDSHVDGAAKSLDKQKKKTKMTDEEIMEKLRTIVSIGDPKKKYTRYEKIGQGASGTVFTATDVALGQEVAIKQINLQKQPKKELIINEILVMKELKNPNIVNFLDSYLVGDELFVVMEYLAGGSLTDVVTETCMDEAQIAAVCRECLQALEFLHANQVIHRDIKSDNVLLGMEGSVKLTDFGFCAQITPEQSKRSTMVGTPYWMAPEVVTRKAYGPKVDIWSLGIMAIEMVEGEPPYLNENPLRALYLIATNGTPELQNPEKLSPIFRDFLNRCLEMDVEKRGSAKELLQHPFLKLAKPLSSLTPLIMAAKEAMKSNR
T40 sequence (Q02750 whole entry): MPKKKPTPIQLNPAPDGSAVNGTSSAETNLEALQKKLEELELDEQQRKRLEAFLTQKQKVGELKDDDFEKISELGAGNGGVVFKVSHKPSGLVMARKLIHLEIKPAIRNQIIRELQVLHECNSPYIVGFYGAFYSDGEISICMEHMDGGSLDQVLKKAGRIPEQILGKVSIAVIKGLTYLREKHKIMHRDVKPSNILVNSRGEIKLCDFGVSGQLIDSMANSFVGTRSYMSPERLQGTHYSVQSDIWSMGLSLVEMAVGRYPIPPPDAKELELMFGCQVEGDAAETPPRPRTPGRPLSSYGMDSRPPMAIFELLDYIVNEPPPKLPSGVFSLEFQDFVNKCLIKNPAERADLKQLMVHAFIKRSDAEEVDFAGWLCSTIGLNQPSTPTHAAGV
T14 sequence (Q96NX5 whole entry): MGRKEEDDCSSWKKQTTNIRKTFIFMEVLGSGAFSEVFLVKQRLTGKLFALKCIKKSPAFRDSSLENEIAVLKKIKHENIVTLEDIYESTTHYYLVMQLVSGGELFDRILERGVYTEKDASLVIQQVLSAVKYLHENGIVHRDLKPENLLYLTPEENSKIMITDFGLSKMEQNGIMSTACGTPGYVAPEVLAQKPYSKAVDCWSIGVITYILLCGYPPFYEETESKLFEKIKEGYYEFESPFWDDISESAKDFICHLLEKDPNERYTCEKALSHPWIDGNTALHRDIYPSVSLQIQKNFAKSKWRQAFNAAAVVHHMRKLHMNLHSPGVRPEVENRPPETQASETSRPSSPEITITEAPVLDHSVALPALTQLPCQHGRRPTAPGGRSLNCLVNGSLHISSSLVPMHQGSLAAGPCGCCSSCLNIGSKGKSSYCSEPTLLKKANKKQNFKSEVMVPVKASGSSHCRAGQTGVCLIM
T35 sequence (P07333 539-972 limits assumed): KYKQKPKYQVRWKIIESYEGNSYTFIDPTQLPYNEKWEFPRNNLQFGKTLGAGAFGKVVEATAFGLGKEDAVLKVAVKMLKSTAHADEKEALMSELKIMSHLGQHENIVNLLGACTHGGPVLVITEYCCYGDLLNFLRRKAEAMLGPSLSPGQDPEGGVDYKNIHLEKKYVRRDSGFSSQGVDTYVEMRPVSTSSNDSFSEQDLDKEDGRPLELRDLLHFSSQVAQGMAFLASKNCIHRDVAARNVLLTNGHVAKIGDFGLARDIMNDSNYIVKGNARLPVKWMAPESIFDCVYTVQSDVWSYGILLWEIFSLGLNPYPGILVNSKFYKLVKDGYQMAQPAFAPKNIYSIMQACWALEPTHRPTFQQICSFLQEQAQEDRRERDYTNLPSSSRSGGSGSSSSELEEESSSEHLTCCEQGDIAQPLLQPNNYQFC
T7 sequence (Q96GD4 whole entry): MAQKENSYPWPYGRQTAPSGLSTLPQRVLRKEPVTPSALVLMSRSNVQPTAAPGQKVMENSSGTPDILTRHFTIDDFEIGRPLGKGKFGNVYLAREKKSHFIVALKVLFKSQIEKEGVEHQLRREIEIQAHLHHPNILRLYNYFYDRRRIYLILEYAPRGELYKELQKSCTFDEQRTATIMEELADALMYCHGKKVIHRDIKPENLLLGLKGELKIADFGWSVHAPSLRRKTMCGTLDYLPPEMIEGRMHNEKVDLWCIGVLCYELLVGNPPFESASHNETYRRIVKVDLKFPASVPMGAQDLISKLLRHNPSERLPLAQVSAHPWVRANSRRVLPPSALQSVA

In the case of `CC(C)c1ccc(CC(=O)N2CCN(c3ccc(C#N)nn3)CC2)cc1` [PZ-2891, 6-(4-(2-(4-isopropylphenyl)acetyl)piperazin-1-yl)pyridazine-3-carbonitrile], the remaining binding at 10 µM (ERK1) is reported as 91%, the remaining binding at 10 µM (NEK1) is reported as 100% and the remaining binding at 10 µM (MUSK) is reported as 95%. For the same compound, the remaining binding at 10 µM (HCK) was 79%, the remaining binding at 10 µM (GCN2(Kin.Dom.2,S808G)) was 87% and the remaining binding at 10 µM (JNK2) was 79%. It also gave a remaining binding at 10 µM (AURKB) of 89%, a remaining binding at 10 µM (NEK7) of 75% and a remaining binding at 10 µM [1] of 97%. The remaining binding at 10 µM (PAK2) was 44%, the remaining binding at 10 µM (MEK5) was 69% and the remaining binding at 10 µM (MYO3B) was 88%. For the same compound, the remaining binding at 10 µM (KIT(D816V)) was 92%, the remaining binding at 10 µM (CAMK1G) was 83% and the remaining binding at 10 µM (FGFR4) was 73%. It also gave a remaining binding at 10 µM (FLT4) of 91%, a remaining binding at 10 µM (KIT(D816H)) of 66% and a remaining binding at 10 µM (PKNB(M.tuberculosis)) of 74%. It also gave a remaining binding at 10 µM (EGFR) of 78%, a remaining binding at 10 µM (ERBB3) of 60% and a remaining binding at 10 µM (CAMK2G) of 86%. The remaining binding at 10 µM (AAK1) was 84%, the remaining binding at 10 µM (MAP3K15) was 92% and the remaining binding at 10 µM (DMPK) was 89%. For the same compound, the remaining binding at 10 µM (PRKD1) was 89%, the remaining binding at 10 µM (PFTAIRE2) was 99% and the remaining binding at 10 µM (PKN2) was 94%. For the same compound, the remaining binding at 10 µM (MET) was 80%, the remaining binding at 10 µM (HIPK3) was 81% and the remaining binding at 10 µM (DYRK1A) was 71%. The remaining binding at 10 µM (DRAK2) was 95%, the remaining binding at 10 µM (BIKE) was 100% and the remaining binding at 10 µM (MST2) was 92%. It also gave a remaining binding at 10 µM (FYN) of 87%, a remaining binding at 10 µM (CSF1R-autoinhibited) of 93% and a remaining binding at 10 µM (PRKCQ) of 100%. It also gave a remaining binding at 10 µM (MET(M1250T)) of 98%, a remaining binding at 10 µM (PIK3CA(E545A)) of 64% and a remaining binding at 10 µM (CSNK1A1) of 66%. It also gave a remaining binding at 10 µM (MEK1) of 76%, a remaining binding at 10 µM (PDGFRB) of 75% and a remaining binding at 10 µM [2] of 89%. For the same compound, the remaining binding at 10 µM (ACVR2B) was 100%.
